Assay results published in article PMC10572522, “A Designed Analog of an Antimicrobial Peptide, Crabrolin, Exhibits Enhanced Anti-Proliferative and In Vivo Antimicrobial Activity” (International Journal of Molecular Sciences, 2023).
Residues, ends and D or L forms follow the SMILES beside them.

How the values were obtained:
[1] = tested on: human breast cancer cell line MCF-7; experiment: Anti-proliferative assay (MTT); type: cell-based; settings: MCF-7, MTT, 24 h
Description: (§1) The human non-small-cell lung cancer line, H838, the human prostate carcinoma cell line, PC-3, the human glioblastoma astrocytoma, U251MG, the human breast cancer cell line, MCF-7, the human colorectal carcinoma cell line, HCT116, and the human keratinocyte cell line, HaCaT, were used to detect the anti-proliferative effects of the crabrolin and its derivatives in vitro. A total of 8000 cells were seeded in each well of a 96-well plate. After the cells had adhered to the wall, the cells were starved for 4 h. After the starvation, the cells were incubated with different concentrations of the drugs, ranging from 100 µM to 1 nM, for 24 h, with 0.1% Triton X-100 used as a positive control. Next, 10 µL of MTT (3-(4,5-dimethylthiazol-2-yl)-2,5-diphenyltetrazolium bromide) solution (5 mg/mL) was added to each well of the 96-well plate. After 2 h of incubation, 100 μL of DMSO-superseded medium was added to each well to dissolve the formazan crystals. Finally, the absorbance was detected using a Synergy HT plate reader at 570 nm.

[2] = tested on: human prostate carcinoma cell line PC-3; experiment: Anti-proliferative assay (MTT); type: cell-based; settings: PC3, MTT, 24 h
Description: as §1

[3] = tested on: human non-small-cell lung cancer line H838; experiment: Anti-proliferative assay (MTT); type: cell-based; settings: 24 h
Description: as §1

[4] = tested on: human glioblastoma astrocytoma U251MG; experiment: Anti-proliferative assay (MTT); type: cell-based; settings: 24 h
Description: as §1

[5] = tested on: human keratinocyte cell line HaCaT; experiment: Anti-proliferative assay (MTT); type: cell-based; settings: HaCaT (normal keratinocytes), 24 h
Description: as §1

[6] = tested on: human colorectal carcinoma cell line HCT-116; experiment: Anti-proliferative assay (MTT); type: cell-based; settings: HCT-116, MTT, 24 h
Description: as §1

[7] = tested on: horse erythrocytes; experiment: Hemolysis assay; type: cell-based; settings: erythrocytes, 37 °C, 2 h
Description: (§2) According to the procedures described in detail in a previous study, the debris and impurities of the erythrocytes were washed with PBS in advance to yield 2% of the erythrocyte suspension, and the drug concentration was diluted from 1024 µM to 2 µM with PBS [53]. The same amounts of the drug and the erythrocyte suspension were mixed and cultured at 37 °C for 2 h; 0.1% Triton X-100 (Sigma-Aldrich, St. Louis, MO, USA) was prepared as a positive control, and PBS was prepared as a negative control. After the incubation, the supernatant was transferred to a 96-well plate and then detected using a Synergy HT plate reader at 570 nm.

[8] = Hemolysis assay; type: cell-based, horse; settings: horse, erythrocytes (2% suspension); at the peptide's maximum MIC; relative to Triton X-100; read-out: Hemolysis under the Maximum MIC
Description: as §2

[9] = tested on: K. pneumoniae (ATCC 43816); experiment: Antimicrobial susceptibility assay (MIC/MBC); type: cell-based, Klebsiella pneumoniae; settings: for MIC: MHB, 37 °C, 20 h
Description: (§3) Six bacteria were tested in this experiment to detect the antimicrobial effects of crabrolin and its derivatives, including S. aureus (NCTC 10788), MRSA (NCTC 12493), E. coli (ATCC 8739), K. pneumoniae (ATCC 43816), E. faecium (NTCC-12697), and P. aeruginosa (ATCC 9027). The tested bacteria were cultured in Mueller Hinton broth medium (MHB) with norfloxacin (20 mg/L) as a positive control. All bacteria were incubated at 37 °C overnight and diluted to 5 × 10^5 CFU/mL before treating with the peptides. Stock solutions of 51,200 µM peptides were prepared in phosphate-buffered saline (PBS) and further diluted by a factor of two to 100 µM. Next, 1 µL of each peptide solution was mixed with 99 µL of bacterial subculture in a 96-well plate, and the plate was incubated at 37 °C for 20 h. After culturing, the absorbance of each well in the 96-well plate was analyzed at 550 nm using a Synergy HT plate reader (BioliseBioTek, Winooski, VT, USA). […] Starting with the MIC value, 10 µL of the solution from each well was dripped onto Mueller Hinton agar (MHA) plates. The plates were cultured at 37 °C for 20 h. After culturing, the lowest concentration with no colony growth was regarded as the MBC.

[10] = tested on: MRSA (NCTC 12493) biofilm; type: cell-based, methicillin-resistant Staphylococcus aureus; settings: for MBIC: biofilm inhibitory rate more than 90%; for MBEC: eradication rate greater than 99.9%
Description: (§4) To measure the antibiofilm activity of crabrolin and its derivatives, four drug-resistant biofilm-forming strains, MRSA (NCTC 12493), K. pneumoniae (ATCC 43816), E. faecium (NTCC-12697), and P. aeruginosa (ATCC 9027), were used in this assay. Tryptic soy broth (TSB) (for the Gram-positive bacteria) and Luria–Bertani broth (LB) (for the Gram-negative bacteria) were used to culture the bacteria.
(§5) The mass of the biofilm in this assay was detected by the crystal violet staining method. First, 100 μL of 5 × 10^5 CFU/mL bacteria was incubated with 1 μL of different peptide solutions (ranging from 51200 μM to 100 μM) for 24 h at 37 °C with 200 rpm shaking. After the biofilm formation, 100 μL of PBS was used to rinse the biofilm twice. Next, 100 µL of methanol was added to fix the biofilm, and the biofilm was then dried. Thereafter, 100 μL of 0.1% crystal violet was added and left to stain for 15 min, and then the excess crystal violet was further rinsed by PBS. After the plate had air-dried, 30% glacial acetic acid was added to each well of the plate, and the plate was shaken for 15 min before the optical density (OD) value was measured at 595 nm using a Synergy HT plate reader. The MBIC value refers to the minimum concentration at which the biofilm inhibitory rate was more than 90%.
(§6) Different from measuring the MBIC value, to determine the MBEC value, 100 μL of the bacteria was first added to 96-well plates. After the biofilm was formed, the biofilm was rinsed with PBS twice to remove the planktonic cells, and then different concentrations of the drugs were added to the biofilm (the same as the MBIC assay). The mixture was incubated at 37 °C with shaking at 200 rpm. After 24 h of incubation, the mass of the biofilm was measured in the same way as the MBIC value, and the minimum concentration at which the eradication rate was greater than 99.9% was considered to be the MBEC value.

[11] = tested on: K. pneumoniae (ATCC 43816) biofilm; type: cell-based, Klebsiella pneumoniae; settings: for MBIC: biofilm inhibitory rate more than 90%; for MBEC: eradication rate greater than 99.9%
Description: as §4, §5, §6

[12] = tested on: E. faecium (NTCC 12697); experiment: Antimicrobial susceptibility assay (MIC/MBC); type: cell-based, Enterococcus faecium; settings: for MIC: MHB, 37 °C, 20 h
Description: as §3

[13] = tested on: MRSA (NCTC 12493); experiment: Antimicrobial susceptibility assay (MIC/MBC); type: cell-based, methicillin-resistant Staphylococcus aureus; settings: for MIC: MHB, 37 °C, 20 h
Description: as §3

[14] = tested on: P. aeruginosa (ATCC 9027); experiment: Antimicrobial susceptibility assay (MIC/MBC); type: cell-based, Pseudomonas aeruginosa; settings: for MIC: MHB, 37 °C, 20 h
Description: as §3

[15] = tested on: P. aeruginosa (ATCC 9027) biofilm; type: cell-based, Pseudomonas aeruginosa; settings: for MBIC: biofilm inhibitory rate more than 90%; for MBEC: eradication rate greater than 99.9%
Description: as §4, §5, §6

[16] = tested on: E. faecium (NTCC12697) biofilm; type: cell-based, Enterococcus faecium; settings: for MBIC: biofilm inhibitory rate more than 90%; for MBEC: eradication rate greater than 99.9%
Description: as §4, §5, §6

[17] = tested on: E. coli (ATCC 8739); experiment: Antimicrobial susceptibility assay (MIC/MBC); type: cell-based, Escherichia coli; settings: for MIC: MHB, 37 °C, 20 h
Description: as §3

[18] = tested on: S. aureus (NCTC 10788); experiment: Antimicrobial susceptibility assay (MIC/MBC); type: cell-based, Staphylococcus aureus; settings: for MIC: MHB, 37 °C, 20 h
Description: as §3

| SMILES | IC50 [1] [µM] | IC50 [2] [µM] | IC50 [3] [µM] | IC50 [4] [µM] | IC50 [5] [µM] | IC50 [6] [µM] | HC10 (10% hemolytic concentration) [7] [µM] | hemolysis at 2 h [8] [%] | MBC [9] [µM] | MIC [9] [µM] | MBIC [10] [µM] | MBEC [10] [µM] | MBIC [11] [µM] | MBEC [11] [µM] | MBC [12] [µM] | MIC [12] [µM] | MBC [13] [µM] | MIC [13] [µM] | MBC [14] [µM] | MIC [14] [µM] | other results |
| --- | --- | --- | --- | --- | --- | --- | --- | --- | --- | --- | --- | --- | --- | --- | --- | --- | --- | --- | --- | --- | --- |
| CC[C@H](C)[C@H](NC(=O)[C@H](CCCNC(=N)N)NC(=O)[C@@H]1CCCN1C(=O)[C@H](CC(C)C)NC(=O)[C@@H](N)CCCNC(=N)N)C(=O)N[C@@H](CC(C)C)C(=O)N[C@@H](CCCNC(=N)N)C(=O)N[C@@H](CCCCN)C(=O)N[C@H](C(=O)N[C@H](C(=O)N[C@@H](CCCNC(=N)N)C(=O)N[C@@H](CCCNC(=N)N)C(=O)N[C@@H](CC(C)C)C(N)=O)C(C)C)[C@@H](C)CC [Crabrolin-AR, RLPRILRKIVRRL-NH2] (H-RLPRILRKIVRRL-NH2) | 32.5 | 28.8 | 41.3 | 52 | 34.9 | 29.9 | 59.049 | 6.63 | 16 | 8 | 8 | 512 | 8 | > 512 | 32 | 16 | 8 | 4 | 16 | 4 | MBIC [15]: 16 µM; MBEC [15]: > 512 µM; MBIC [16]: 64 µM; MBEC [16]: > 512 µM; MBC [17]: 4 µM; MIC [17]: 2 µM; MBC [18]: 8 µM; MIC [18]: 4 µM |
| CC[C@H](C)[C@H](NC(=O)[C@H](CCCNC(=N)N)NC(=O)[C@@H]1CCCN1C(=O)[C@H](CC(C)C)NC(=O)[C@@H](N)CCCNC(=N)N)C(=O)N[C@@H](CC(C)C)C(=O)N[C@@H](CCCNC(=N)N)C(=O)N[C@@H](CCCCN)C(=O)N[C@H](C(=O)N[C@H](C(=O)N[C@@H](CCCNC(=N)N)C(=O)N[C@@H](C)C(=O)N[C@@H](CC(C)C)C(N)=O)C(C)C)[C@@H](C)CC [Crabrolin-FR, RLPRILRKIVRAL-NH2] (H-RLPRILRKIVRAL-NH2) | 33.9 | 15.9 | 31.5 | 62.2 | 30.4 | 30.3 | 18.082 | 5.67 | 16 | 8 | 8 | 256 | 8 | 512 | 16 | 8 | 4 | 4 | 16 | 4 | MBIC [15]: 8 µM; MBEC [15]: > 512 µM; MBIC [16]: 32 µM; MBEC [16]: > 512 µM; MBC [17]: 4 µM; MIC [17]: 2 µM; MBC [18]: 2 µM; MIC [18]: 2 µM |
